# Data: ChEMBL document CHEMBL2203203, “Structure-activity relationships of 2-arylamido-5,7-dihydro-4H-thieno[2,3-c]pyran-3-carboxamide derivatives as cannabinoid receptor agonists and their analgesic action” (Bioorg Med Chem Lett, 2012)
# Calls of active or inactive are those of the source.
# Legend:
# [1] = Half life in mouse liver microsomes; assay type: ADME, Microsome
# [2] = Half life in rat at 3 mg/kg, po; assay type: ADME, organism-based; parameters: dose 3 mg/kg, route oral; details: in vivo
# [3] = Half life in human liver microsomes; assay type: ADME, Microsome
# [4] = test system: Rattus norvegicus; assay: Analgesic activity in carrageenan-induced Sprague-Dawley rat allodynia model assessed as effect on paw withdrawal threshold at 10 mg/kg, po after 30 mins; assay type: functional, organism-based; parameters: dose 10 mg/kg
# [5] = test system: Rattus norvegicus; assay: Analgesic activity in carrageenan-induced Sprague-Dawley rat allodynia model assessed as increase in paw withdrawal threshold at 10 to 30 mg/kg, po after 90 mins; assay type: functional, organism-based
# [6] = biological target: T1, Cannabinoid receptor 1 (Homo sapiens, UniProt P21554); assay: Agonist activity at human CB1 receptor after 4 hrs by luciferase reporter gene assay relative to control; assay type: functional
# [7] = biological target: T2, Cannabinoid receptor 2 (Homo sapiens, UniProt P34972); assay: Agonist activity at human CB2 receptor after 4 hrs by luciferase reporter gene assay relative to control; assay type: functional
# [8] = Tmax in rat at 3 mg/kg, po; assay type: ADME, organism-based; parameters: dose 3 mg/kg, route oral; details: in vivo
# [9] = test system: Rattus norvegicus; assay: Analgesic activity in carrageenan-induced Sprague-Dawley rat allodynia model assessed as increase in paw withdrawal threshold at 30 to 100 mg/kg, po after 30 mins; assay type: functional, organism-based
# [10] = biological target: Cannabinoid receptor 1 (Rattus norvegicus, UniProt P20272); assay: Displacement of [3H]-CP55,940 from rat CB1 receptor after 60 mins by microscintillation counting analysis
# [11] = Clearance in rat at 1 mg/kg, iv; assay type: ADME, organism-based; parameters: dose 1 mg/kg, route intravenous; details: in vivo
# [12] = species: Homo sapiens; assay: Selectivity ratio of EC50 for human CB1 receptor to EC50 for human CB2 receptor
# [13] = test system: Mus musculus; assay: Analgesic activity in NMRI mouse assessed as inhibition of acetic acid-induced writhing at 30 mg/kg, po measured for 30 mins relative to vehicle-treated control; assay type: functional; details: 0.5 h
# [14] = Half life in rat liver microsomes; assay type: ADME, Microsome
# [15] = Oral bioavailability in rat at 3 mg/kg; assay type: ADME, organism-based; details: in vivo
# [16] = biological target: T1, Cannabinoid receptor 1; assay: Displacement of [3H]-CP55,940 from human CB1 receptor after 60 mins by microscintillation counting analysis
# [17] = biological target: T3, Cannabinoid receptor 2 (Rattus norvegicus, UniProt Q9QZN9); assay: Displacement of [3H]-CP55,940 from rat CB2 receptor after 60 mins by microscintillation counting analysis
# T3 sequence (Q9QZN9 whole entry): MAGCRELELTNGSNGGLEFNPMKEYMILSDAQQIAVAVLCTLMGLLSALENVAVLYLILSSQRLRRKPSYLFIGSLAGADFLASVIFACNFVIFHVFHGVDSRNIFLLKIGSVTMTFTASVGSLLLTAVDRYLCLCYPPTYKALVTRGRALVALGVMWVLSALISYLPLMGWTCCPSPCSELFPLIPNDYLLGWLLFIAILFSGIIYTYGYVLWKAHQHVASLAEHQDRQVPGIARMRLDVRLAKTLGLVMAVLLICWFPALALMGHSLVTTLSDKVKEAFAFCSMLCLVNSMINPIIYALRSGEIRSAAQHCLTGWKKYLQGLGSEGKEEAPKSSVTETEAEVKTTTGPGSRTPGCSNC
# [18] = biological target: T1, Cannabinoid receptor 1; assay: Agonist activity at human CB1 receptor after 4 hrs by luciferase reporter gene assay; assay type: functional
# [19] = AUC in rat at 1 mg/kg, iv; assay type: ADME, organism-based; parameters: dose 1 mg/kg, route intravenous; details: plasma
# [20] = biological target: T2, Cannabinoid receptor 2; assay: Displacement of [3H]-CP55,940 from human CB2 receptor after 60 mins by microscintillation counting analysis
# [21] = Volume of distribution at steady state in rat at 1 mg/kg, iv; assay type: ADME, organism-based; parameters: dose 1 mg/kg, route intravenous; details: in vivo, read-out: Vdss
# [22] = Half life in rat at 1 mg/kg, iv; assay type: ADME, organism-based; parameters: dose 1 mg/kg, route intravenous; details: in vivo
# [23] = biological target: T2, Cannabinoid receptor 2; assay: Agonist activity at human CB2 receptor after 4 hrs by luciferase reporter gene assay; assay type: functional
# [24] = biological target: Cannabinoid receptor 2 (Mus musculus) (UniProt P47936); assay: Agonist activity at mouse CB2 receptor after 4 hrs by luciferase reporter gene assay relative to control; assay type: functional
# [25] = biological target: Cannabinoid receptor 2 (Mus musculus, UniProt P47936); assay: Agonist activity at mouse CB2 receptor after 4 hrs by luciferase reporter gene assay; assay type: functional
# Cannabinoid receptor 2 (Mus musculus, UniProt P47936), sequence (P47936 whole entry): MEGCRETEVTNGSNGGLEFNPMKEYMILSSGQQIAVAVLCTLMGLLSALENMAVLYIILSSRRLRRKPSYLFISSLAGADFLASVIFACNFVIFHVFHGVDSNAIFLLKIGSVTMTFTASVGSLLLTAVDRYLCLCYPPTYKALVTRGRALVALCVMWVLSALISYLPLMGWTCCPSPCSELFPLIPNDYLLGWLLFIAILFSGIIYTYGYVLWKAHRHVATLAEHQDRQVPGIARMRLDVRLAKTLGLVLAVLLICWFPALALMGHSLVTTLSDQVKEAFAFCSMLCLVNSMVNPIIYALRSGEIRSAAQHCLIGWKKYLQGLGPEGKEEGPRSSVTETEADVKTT
# T2 sequence (P34972 whole entry): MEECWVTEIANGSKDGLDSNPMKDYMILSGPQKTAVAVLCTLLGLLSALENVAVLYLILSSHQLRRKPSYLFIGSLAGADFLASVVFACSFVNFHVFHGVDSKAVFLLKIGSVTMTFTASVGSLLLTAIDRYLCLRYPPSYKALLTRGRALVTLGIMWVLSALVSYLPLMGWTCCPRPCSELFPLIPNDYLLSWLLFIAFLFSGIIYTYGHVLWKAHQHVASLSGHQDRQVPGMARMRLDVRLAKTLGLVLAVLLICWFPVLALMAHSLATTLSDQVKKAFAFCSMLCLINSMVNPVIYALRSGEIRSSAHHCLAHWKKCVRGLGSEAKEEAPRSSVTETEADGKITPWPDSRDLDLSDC
# T1 sequence (P21554 whole entry): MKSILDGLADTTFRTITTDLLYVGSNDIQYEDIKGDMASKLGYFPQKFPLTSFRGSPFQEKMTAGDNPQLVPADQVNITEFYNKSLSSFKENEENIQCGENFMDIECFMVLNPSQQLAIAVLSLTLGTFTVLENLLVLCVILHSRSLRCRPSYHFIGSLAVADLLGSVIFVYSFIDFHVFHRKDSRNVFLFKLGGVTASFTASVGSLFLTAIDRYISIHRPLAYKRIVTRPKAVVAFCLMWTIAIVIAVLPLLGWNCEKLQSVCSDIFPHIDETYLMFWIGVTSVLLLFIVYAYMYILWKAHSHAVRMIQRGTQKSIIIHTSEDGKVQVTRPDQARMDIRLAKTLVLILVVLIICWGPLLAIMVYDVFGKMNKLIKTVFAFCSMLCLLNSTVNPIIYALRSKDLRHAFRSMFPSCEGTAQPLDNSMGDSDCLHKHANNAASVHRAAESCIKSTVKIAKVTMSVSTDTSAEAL
# Cannabinoid receptor 2 (Mus musculus), sequence (P47936 whole entry): as the sequence (P47936 whole entry) above
# Cannabinoid receptor 1 (Rattus norvegicus, UniProt P20272), sequence (P20272 whole entry): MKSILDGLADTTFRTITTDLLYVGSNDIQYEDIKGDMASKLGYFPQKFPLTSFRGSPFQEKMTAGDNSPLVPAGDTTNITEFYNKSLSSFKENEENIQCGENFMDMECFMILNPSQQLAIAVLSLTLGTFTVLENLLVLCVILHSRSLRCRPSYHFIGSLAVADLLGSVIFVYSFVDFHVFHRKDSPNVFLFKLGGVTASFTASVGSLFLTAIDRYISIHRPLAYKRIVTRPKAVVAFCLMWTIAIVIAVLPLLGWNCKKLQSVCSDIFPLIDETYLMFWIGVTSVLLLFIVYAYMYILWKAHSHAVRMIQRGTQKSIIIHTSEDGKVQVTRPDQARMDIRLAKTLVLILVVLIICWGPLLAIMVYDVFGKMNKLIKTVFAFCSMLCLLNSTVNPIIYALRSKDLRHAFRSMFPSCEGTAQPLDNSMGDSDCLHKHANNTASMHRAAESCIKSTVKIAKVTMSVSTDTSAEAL
smiles,measurement,setting,value
O=C(Nc1sc2c(c1C(=O)N1CC(F)(F)C1)CCOC2)c1c(F)cccc1C(F)(F)F,half-life,[1],51.3 min
same,half-life,[2],534 min
same,half-life,[3],25.4 min
same,Activity,[4],inactive
same,Activity,[5],Active
same,Efficacy,[6],83%
same,Efficacy,[7],96%
same,Tmax,[8],60 min
same,Activity,[9],Active
same,Ki,[10],13500 nM
same,clearance,[11],102 mL/min/kg
same,Ratio EC50,[12],122
same,inhibition in vivo at 30 mg/kg,[13],38%
same,half-life,[14],14.2 min
same,bioavailability,[15],8%
same,Ki,[16],11100 nM
same,Ki,[17],630 nM
same,EC50,[18],798 nM
same,AUC,[19],165 ng·h/mL
same,Ki,[20],444 nM
same,Vd,[21],3.61 L/kg
same,half-life,[22],30 min
same,EC50,[23],6.5 nM
O=C(Nc1sc2c(c1C(=O)N1CCOCC1)CCCC2)c1ccccc1Cl,Efficacy,[24],107%
same,Efficacy,[6],77%
same,Efficacy,[7],95%
same,Ratio EC50,[12],25
same,EC50,[18],251 nM
same,EC50,[25],50 nM
same,EC50,[23],10 nM
